Experimental data: the supplement of paper PMC13380429

Assays:
[1] = system: A549-ACE2 infected with SARS-CoV-2; assay: cell count relative to DMSO; higher = less toxic; conditions: 24 h
[2] = system: Caco-2; assay: cell viability relative to DMSO; higher = less toxic; conditions: 72 h
[3] = system: Calu-3; assay: as above; conditions: 72 h
[4] = system: HepG2; assay: as above; conditions: 72 h
[5] = system: U2OS; assay: as above; conditions: 72 h
[6] = system: Vero E6; assay: as above; conditions: 72 h
[7] = system: A549-ACE2 infected with SARS-CoV-2; assay: SARS-CoV-2 infection rate relative to DMSO; higher = more infection; conditions: 24 h
[8] = system: A549-ACE2; assay: phospholipidosis EC50; higher = less potent phospholipidosis inducer
[9] = system: A549-ACE2; assay: drug-induced phospholipidosis relative to tamoxifen; higher = more phospholipidosis
[10] = system: A549-ACE2 infected with SARS-CoV-2; assay: morphology score (similarity to uninfected cells); higher = more like uninfected cells; conditions: 24 h
[11] = system: Caco-2; assay: relative viability EC50 (midpoint between 100% and the lowest measured viability); higher = less toxic; conditions: 72 h
[12] = system: Calu-3; assay: as above; conditions: 72 h
[13] = system: HepG2; assay: as above; conditions: 72 h
[14] = system: U2OS; assay: as above; conditions: 72 h
[15] = system: Vero E6; assay: as above; conditions: 72 h
[16] = system: Caco-2; assay: drug sensitivity score (DSS) for viability; higher = more toxic; extreme values may be limits of the assay; conditions: 72 h
[17] = system: Calu-3; assay: as above; conditions: 72 h
[18] = system: HepG2; assay: as above; conditions: 72 h
[19] = system: U2OS; assay: as above; conditions: 72 h
[20] = system: Vero E6; assay: as above; conditions: 72 h

OCCN1CCN(CC/C=C2/c3ccccc3Sc3ccc(C(F)(F)F)cc32)CC1 [flupentixol]
Conditions | SARS-CoV-2 infection rate [%] | cell count [%] | cell viability [%] | morphology score | phospholipidosis EC50 [µM]
[1], 0.3 µM | – | 107 | – | – | –
[1], 3 µM | – | 113 | – | – | –
[1], 10 µM | – | 124 | – | – | –
[1], 30 µM | – | 96 | – | – | –
[2], 1 nM | – | – | 90.3 | – | –
[2], 10 nM | – | – | 93.7 | – | –
[2], 100 nM | – | – | 95.2 | – | –
[2], 1000 nM | – | – | 87.6 | – | –
[2], 10000 nM | – | – | 92.4 | – | –
[3], 1 nM | – | – | 85.3 | – | –
[3], 10 nM | – | – | 87.7 | – | –
[3], 100 nM | – | – | 106 | – | –
[3], 1000 nM | – | – | 94.7 | – | –
[3], 10000 nM | – | – | 87 | – | –
[4], 1 nM | – | – | 97.2 | – | –
[4], 10 nM | – | – | 93.8 | – | –
[4], 100 nM | – | – | 90 | – | –
[4], 1000 nM | – | – | 96.9 | – | –
[4], 10000 nM | – | – | 89.9 | – | –
[5], 1 nM | – | – | 99.2 | – | –
[5], 10 nM | – | – | 89.9 | – | –
[5], 100 nM | – | – | 105 | – | –
[5], 1000 nM | – | – | 94.6 | – | –
[5], 10000 nM | – | – | 92.1 | – | –
[6], 1 nM | – | – | 98.1 | – | –
[6], 10 nM | – | – | 96.9 | – | –
[6], 100 nM | – | – | 98.1 | – | –
[6], 1000 nM | – | – | 91.8 | – | –
[6], 10000 nM | – | – | 93.1 | – | –
[7], 0.3 µM | 97 | – | – | – | –
[7], 3 µM | 66 | – | – | – | –
[7], 10 µM | 17 | – | – | – | –
[7], 30 µM | 46 | – | – | – | –
[8], 24 h | – | – | – | – | 17
[8], 48 h | – | – | – | – | 8.95
[8], 72 h | – | – | – | – | 10.2
[10], 0.3 µM | – | – | – | 0.2 | –
[10], 3 µM | – | – | – | 0.62 | –
[10], 10 µM | – | – | – | 0.88 | –
[10], 30 µM | – | – | – | 0.36 | –

drug-induced phospholipidosis [%], [9]
Conditions | 0.3 µM | 0.833333 µM | 3.33333 µM | 6.66667 µM | 10 µM | 30 µM
24 h | 4.08 | 5.01 | 30.1 | 43.1 | 72.8 | 122
48 h | 5.09 | 0.98 | 25.8 | 36.9 | 80 | 116
72 h | 7.2 | 2.4 | 18.4 | 31.8 | 74.8 | 138

Conditions | drug sensitivity score | relative viability EC50 [nM]
[11] | – | > 10000
[12] | – | > 10000
[13] | – | > 10000
[14] | – | > 10000
[15] | – | > 10000
[16] | 0 | –
[17] | 0.6 | –
[18] | 0 | –
[19] | 0 | –
[20] | 0 | –

COC(=O)C[C@](O)(CCCC(C)(C)O)C(=O)O[C@@H]1C(OC)=C[C@]23CCCN2CCc2cc4c(cc2[C@H]13)OCO4 [homoharringtonine]
Conditions | SARS-CoV-2 infection rate, [7] [%] | cell count, [1] [%] | cell viability, [2] [%] | cell viability, [3] [%] | cell viability, [4] [%] | cell viability, [5] [%] | cell viability, [6] [%] | morphology score, [10]
1 nM | – | – | 99.3 | 93.4 | 98.4 | 104 | 92.4 | –
10 nM | – | – | 102 | 91.1 | 89.1 | 101 | 103 | –
100 nM | – | – | 61.8 | 60.1 | 29.4 | 23 | 82.1 | –
0.3 µM | 12 | 68 | – | – | – | – | – | 0.32
1000 nM | – | – | 24.7 | 27.3 | 6 | 6.6 | 12.8 | –
3 µM | 16 | 49 | – | – | – | – | – | 0.26
10 µM | 19 | 42 | – | – | – | – | – | 0.3
10000 nM | – | – | 27.9 | 22 | 1 | 0.3 | 0.5 | –
30 µM | 15 | 30 | – | – | – | – | – | 0.33

Conditions | drug-induced phospholipidosis [%]
[9], 0.3 µM, 24 h | -2.95

Conditions | drug sensitivity score | relative viability EC50 [nM]
[11] | – | 99
[12] | – | 89.7
[13] | – | 49.7
[14] | – | 61.6
[15] | – | 273
[16] | 18.6 | –
[17] | 18.5 | –
[18] | 27 | –
[19] | 26.8 | –
[20] | 18.2 | –

COc1c(C)c2c(c(O)c1C/C=C(\C)CCC(=O)OCCN1CCOCC1)C(=O)OC2 [mycophenolate-mofetil]
Conditions | SARS-CoV-2 infection rate, [7] [%] | cell count, [1] [%] | cell viability, [2] [%] | cell viability, [3] [%] | cell viability, [4] [%] | cell viability, [5] [%] | cell viability, [6] [%] | morphology score, [10]
1 nM | – | – | 94.2 | 89.2 | 103 | 96.5 | 99 | –
10 nM | – | – | 101 | 102 | 101 | 97.9 | 98.4 | –
100 nM | – | – | 106 | 94.4 | 112 | 87.8 | 99.1 | –
0.3 µM | 97 | 102 | – | – | – | – | – | 0.22
1000 nM | – | – | 76 | 85.1 | 61.6 | 73.5 | 75.1 | –
3 µM | 78 | 80 | – | – | – | – | – | 0.12
10 µM | 81 | 94 | – | – | – | – | – | 0.22
10000 nM | – | – | 51.3 | 53.1 | 29.2 | 22.8 | 31.3 | –
30 µM | 65 | 92 | – | – | – | – | – | 0.37

drug-induced phospholipidosis [%], [9]
Conditions | 0.3 µM | 0.833333 µM | 3.33333 µM | 6.66667 µM | 10 µM | 30 µM
24 h | -1.99 | -10.6 | -14.8 | -15.8 | -12.1 | -11.3
48 h | 0.05 | -8.58 | – | – | – | –
72 h | 1.31 | -1.93 | – | – | – | –

Conditions | drug sensitivity score | relative viability EC50 [nM]
[13] | – | 938
[14] | – | 1440
[15] | – | 1250
[16] | 5.6 | –
[17] | 4.2 | –
[18] | 8.6 | –
[19] | 7.2 | –
[20] | 7.3 | –

[O-][n+]1ccccc1[S-].[O-][n+]1ccccc1[S-].[Zn+2] [pyrithione-zinc]
Conditions | SARS-CoV-2 infection rate, [7] [%] | cell count, [1] [%] | cell viability, [2] [%] | cell viability, [3] [%] | cell viability, [4] [%] | cell viability, [5] [%] | cell viability, [6] [%] | morphology score, [10]
1 nM | – | – | 91.4 | 102 | 97 | 102 | 98.8 | –
10 nM | – | – | 94.5 | 94.8 | 111 | 95.1 | 93.6 | –
100 nM | – | – | 69.8 | 94.6 | 102 | 97 | 94.4 | –
0.3 µM | 95 | 99 | – | – | – | – | – | 0.13
1000 nM | – | – | 13.4 | 40.6 | 24.6 | 10.8 | 40 | –
3 µM | 76 | 4 | – | – | – | – | – | 0.14
10000 nM | – | – | 22.9 | 18.8 | -0.1 | 1.3 | 0.1 | –

drug-induced phospholipidosis [%], [9]
Conditions | 24 h | 48 h | 72 h
0.3 µM | -3.98 | -0.06 | 2.15
0.833333 µM | 2.2 | – | –

Conditions | drug sensitivity score | relative viability EC50 [nM]
[11] | – | 137
[12] | – | 527
[13] | – | 640
[14] | – | 406
[15] | – | 748
[16] | 19.5 | –
[17] | 12 | –
[18] | 14.1 | –
[19] | 16.4 | –
[20] | 12.8 | –
